# Data taken from patent publication US6630572B1, “Thrombin derived polypeptides: compositions and methods for use” (The Board of Regents, University of Texas Syatems, priority 1986, dated 2003).
# Ends that are not written are not given here.
# Tests used:
# [1] = system: high-affinity thrombin receptor; experiment: Competition for specific [125I]-alpha-thrombin binding to ME cells; parameters: species or system mouse; details: for fold higher concentration than p508-530 required for 30% inhibition of [125I]-alpha-thrombin binding: ME cells; for Conc. at Maximal % Inhibition / Concentration Required for 30% Inhibition / Maximal % Inhibition: [125I]-alpha-thrombin (1 nM), quiescent ME cells; for Concentration Required for 30% Inhibition / Maximal % Inhibition: 23° C.; for Maximal % Inhibition: at the conc. printed below the value
# Description: Specific techniques whereby the competitive binding studies were performed are set out below. Human alpha-thrombin was iodinated in the presence of benzamidine (an active-site competitive inhibitor), lactoperoxidase, and Na[^125I]. […] These iodinated preparations retained approximately 80% of their fibrinogen clotting activity. The ability of the synthetic peptides to compete for specific [^125I]-alpha-thrombin binding to fibroblasts was measured on nonproliferating, mitogenically responsive cultures in 24 well plates (Falcon) at a cell density of approximately 5×10^4 cells/cm^2 as previously described (Carney and Cunningham, Cell, 15:1341-1349 (1978)). The medium on the cells was changed to binding medium (serum-free DV medium containing 0.5% (w/v) bovine serum albumin buffered with 15 mM HEPES at pH 7.0). The cells were equilibrated at 23° C. for 30 minutes, and the medium was changed to binding medium containing [^125I]-alpha-thrombin (10 ng/ml) with the indicated concentrations of the peptides. After 2 hours at 23° C., the assay was terminated by quickly rinsing the cells four times with ice-cold PBS. The cells were dissolved in 1 ml of 0.5 N NaOH and the total radioactivity was measured using a Beckman gamma counter. Nonspecific binding was measured as the radioactivity bound to cultures after incubation in binding medium containing a 100-fold excess of unlabeled alpha-thrombin. Specific binding was calculated by subtracting nonspecific binding from total radioactivity bound to cultures. […] Scatchard analysis of the direct binding of [^125I]-labeled p508-530 indicated a KD of approximately 6×10^−8 M (data not shown). […] Various concentrations of peptides and [^125I]-alpha-thrombin (1 nM) were incubated with quiescent ME cells for […] at 23° C. Specific binding of [^125I]-alpha-thrombin was defined as described in Example 3.
# ME cells = experiment: [3H]-thymidine incorporation (DNA synthesis) in quiescent ME cells; type: cell-based, mouse; details: for inhibition of alpha-thrombin stimulated DNA synthesis: 625 nM peptide, FIG. 7
# Description: Primary cultures of fibroblasts were prepared from 9- to 13-day old embryos of NIH-swiss outbred mice as described by Carney and Cunningham, Cell, 15:1341-1349, (1978). NIL cells, an established strain of hamster fibroblasts, were maintained as stock cultures and subcultured every four days. All cells were grown in Dulbecco-Vogt modified Eagle's (DV) medium supplemented with 10% (v/v) bovine calf serum (CS), in a humidified atmosphere of 5% CO2 in air at 37° C. Quiescent cultures were prepared by subculturing stock cells from 100 mm dishes, using 0.05% (w/v) trypsin and 0.02% EDTA (w/v) in phosphate-buffered saline (PBS) and plating them in 24-well culture plates in DV medium supplemented with 10% (v/v) CS at 6×10^4 cells/cm^2. After allowing the cells to attach overnight, the medium was removed and the cells were rinsed with DV medium containing no serum. The cells were incubated in this serum-free medium for 48 hours before the indicated experiments. […] The effects of the synthetic peptides on DNA synthesis were determined by measuring the incorporation of methyl-[^3H]-thymidine (TdR, ICN Pharmaceuticals, Irvine, Calif.) during a 2 hour incubation generally from 22 hours after addition of peptides and/or thrombin (Stiernberg et al., J. Cell Physiol., 120:209-285 (1984)). After incubation, the cells were extracted and rinsed with ice-cold 10% (w/v) trichloroacetic acid (TCA). The acid precipitable material was dissolved overnight in 0.5 ml 0.5 N KOH at 23° C. HCl (1 N), 0.25 ml, was added and the solution was counted in 10 ml of RediSolv-HPb (Beckman Instruments, Houston, Tex.) scintillation fluid. The present inventors first tested the ability of p508-530 to stimulate DNA synthesis in non-proliferating cultures of ME or NIL cells. […] In order to explain the mechanism by which p517-520 was able to inhibit thrombin-mediated mitogenesis, the inventors measured the ability of increasing concentrations of alpha-thrombin to stimulate DNA synthesis in cultures to which a constant concentration (625 nM) of p517-520 had been added (FIG. 7). […]
# NIL cells = experiment: [3H]-thymidine incorporation (DNA synthesis) in quiescent NIL cells; type: cell-based, hamster; details: for effect on alpha-thrombin stimulated DNA synthesis: quiescent NIL cells, increasing peptide concentrations, 2 and 4 nM alpha-thrombin, FIG. 6
# Description: Primary cultures of fibroblasts were prepared from 9- to 13-day old embryos of NIH-swiss outbred mice as described by Carney and Cunningham, Cell, 15:1341-1349, (1978). NIL cells, an established strain of hamster fibroblasts, were maintained as stock cultures and subcultured every four days. All cells were grown in Dulbecco-Vogt modified Eagle's (DV) medium supplemented with 10% (v/v) bovine calf serum (CS), in a humidified atmosphere of 5% CO2 in air at 37° C. Quiescent cultures were prepared by subculturing stock cells from 100 mm dishes, using 0.05% (w/v) trypsin and 0.02% EDTA (w/v) in phosphate-buffered saline (PBS) and plating them in 24-well culture plates in DV medium supplemented with 10% (v/v) CS at 6×10^4 cells/cm^2. After allowing the cells to attach overnight, the medium was removed and the cells were rinsed with DV medium containing no serum. The cells were incubated in this serum-free medium for 48 hours before the indicated experiments. […] The effects of the synthetic peptides on DNA synthesis were determined by measuring the incorporation of methyl-[^3H]-thymidine (TdR, ICN Pharmaceuticals, Irvine, Calif.) during a 2 hour incubation generally from 22 hours after addition of peptides and/or thrombin (Stiernberg et al., J. Cell Physiol., 120:209-285 (1984)). After incubation, the cells were extracted and rinsed with ice-cold 10% (w/v) trichloroacetic acid (TCA). The acid precipitable material was dissolved overnight in 0.5 ml 0.5 N KOH at 23° C. HCl (1 N), 0.25 ml, was added and the solution was counted in 10 ml of RediSolv-HPb (Beckman Instruments, Houston, Tex.) scintillation fluid. The present inventors first tested the ability of p508-530 to stimulate DNA synthesis in non-proliferating cultures of ME or NIL cells. […] However, in combination with 2 nM alpha-thrombin, 0.1 uM p508-530 stimulated a 6- or greater than 2-fold increase in incorporation of [^3H]-thymidine into DNA in ME cells when compared to parallel cultures left untreated or treated with alpha-thrombin alone, respectively (FIG. 4A). A similar mitogenic stimulation was also observed in NIL hamster cells, although it required a slightly higher concentration of thrombin and peptides (FIG. 4B). […] With NIL cells, a similar correlation was observed between the mitogenic concentrations of p508-530 and the concentrations required to inhibit thrombin binding, although at higher levels than required with ME cells. […] It was predicted, therefore, that if p508-530 was generating a receptor occupancy-related signal, its addition to cells in combination with PMA should stimulate mitogenesis. […] This stimulation occurred at approximately the same concentration of peptide as that required to stimulate DNA synthesis in the presence of low concentrations of alpha-thrombin. […]
# fibroblast = details: compared with fibronectin-specific peptides; cited from earlier work
Substance,fold higher concentration than p508-530 required for 30% inhibition of [125I]-alpha-thrombin binding [1],Conc. at Maximal % Inhibition [1],Concentration Required for 30% Inhibition [1],Maximal % Inhibition [1],mitogenesis (summary statement) (NIL cells),effect on alpha-thrombin stimulated DNA synthesis (NIL cells),promotion of fibroblast attachment (fibroblast),also measured
Arg-Gly-Ala-Ser (RGAS; printed: Arg-Gly-Ala-Ser) [reference compound],–,–,–,–,–,–,–,competition with [125I]-alpha-thrombin for binding ([1]; concentration of 1.3 uM): did not compete
Arg-Gly-Asp-Ala (RGDA; Fragment of human prothrombin) [p517-520],50 fold,(2.7 uM),300 nM,50%,without inducing mitogenesis,inhibited DNA synthesis,comparable to that induced by fibronectin-specific peptides,molar excess of peptide required for inhibition of alpha-thrombin stimulation (ME cells): 500-1000 fold; inhibition of alpha-thrombin stimulated DNA synthesis (ME cells; 0.8 nM alpha-thrombin): approximately 75%; inhibition of alpha-thrombin stimulated DNA synthesis (ME cells; 13.0 nM alpha-thrombin): ~35%
"DACEGDSGGPFV [p519-530, peptide representing residues 519 to 530 of the B-chain region of human prothrombin]",33 fold,(800 Nm),200 nM,51%,retains the ability to mediate mitogenesis but to a much lesser degree than p508-530,enhanced DNA synthesis,–,–
p510-526: peptide representing 510-526 of human prothrombin (TKPDEGKRGDACEGDSG; Fragment of human prothrombin),–,–,–,–,–,–,comparable to that induced by fibronectin-specific peptides,–
p516-522: peptide representing 516-522 of human prothrombin (KRGDACE; Fragment of human prothrombin),–,–,–,–,–,–,comparable to that induced by fibronectin-specific peptides,–
